Tests used:
[1] = tested on: rat sandwich-cultured hepatocytes; assay: in vitro; format: in vitro ADME
Experimental: Sandwich-cultured rat hepatocytes (SCHs) were established according to previously described methods with minor modifications. Primary rat hepatocytes were isolated from male Sprague Dawley® (SD) rats (220-270 g) using a collagenase perfusion as described previously and plated at a density of 7.4×10^5 cells/2 ml/well onto six-well BioCoat plates. Approximately 24 hours later, hepatocytes were overlaid with 2 ml of 0.25 mg/ml BD Matrigel basement membrane matrix in Dulbecco's modified Eagle medium (DMEM) containing 1% volume by volume percentage (v/v) insulin/transferrin/selenium culture supplement, […] dexamethasone, 2 mM L-glutamine, 1% (v/v) minimum essential medium nonessential amino acids, 1% penicillin-streptomycin. Hepatocytes were cultured for 4 days to allow extensive formation of canalicular networks between cells before experimentation and the medium was changed daily.
Sandwich-cultured hepatocytes (SCHs) were pre-incubated in 2 milliliters (ml) of warm Hank's Balanced Salt Solution (HBSS) with or without Ca^2+ at 37° C. for 15 minutes; the tight junctions of the bile canaliculi open temporally after exposure to HBSS without Ca^2+. Subsequently, cells were incubated at 37° C. for 20 minutes with 1.5 ml of standard HBSS containing silybin (10 μM), or MK 571 (50 μM) as a positive control, or baicalein (25, 15.8, 5, 1.58, 0.5, 0.16 μM), or tangeretin (25, 15.8, 5, 1.58, 0.5 μM). After 20 min, cells were washed three times with ice-cold standard HBSS. The cell samples were lysed by sonication in 1 ml of water for 5 seconds with the ultrasonic cell disruption system (SONICS & […], INC., Newtown, Conn., USA). Conjugated silybin and unconjugated (free) silybin were quantified by high-performance liquid chromatography-tandem mass spectrometry (HPLC-MS/MS). Transport function was normalized to the protein content of the hepatocytes which was evaluated by bicinchoninic acid (BCA) protein assay (Pierce Chemical, Rockford, Ill.). The biliary excretion index (BEI; %) and in vitro biliary clearance (Clbiliary; ml/min/kg) were calculated by using B-CLEAR technology (Qualyst, Inc., Research Triangle Park, N.C.) based on the following equations: […]

[2] = molecular target: T1, BCRP (Homo sapiens, UniProt Q9UNQ0); assay: Transport of silybin across MDCKII-BCRP cells; format: in vitro ADME; parameters: host or cells: MDCKII (Madin-Darby canine kidney II)
T1 sequence (Q9UNQ0 1-655): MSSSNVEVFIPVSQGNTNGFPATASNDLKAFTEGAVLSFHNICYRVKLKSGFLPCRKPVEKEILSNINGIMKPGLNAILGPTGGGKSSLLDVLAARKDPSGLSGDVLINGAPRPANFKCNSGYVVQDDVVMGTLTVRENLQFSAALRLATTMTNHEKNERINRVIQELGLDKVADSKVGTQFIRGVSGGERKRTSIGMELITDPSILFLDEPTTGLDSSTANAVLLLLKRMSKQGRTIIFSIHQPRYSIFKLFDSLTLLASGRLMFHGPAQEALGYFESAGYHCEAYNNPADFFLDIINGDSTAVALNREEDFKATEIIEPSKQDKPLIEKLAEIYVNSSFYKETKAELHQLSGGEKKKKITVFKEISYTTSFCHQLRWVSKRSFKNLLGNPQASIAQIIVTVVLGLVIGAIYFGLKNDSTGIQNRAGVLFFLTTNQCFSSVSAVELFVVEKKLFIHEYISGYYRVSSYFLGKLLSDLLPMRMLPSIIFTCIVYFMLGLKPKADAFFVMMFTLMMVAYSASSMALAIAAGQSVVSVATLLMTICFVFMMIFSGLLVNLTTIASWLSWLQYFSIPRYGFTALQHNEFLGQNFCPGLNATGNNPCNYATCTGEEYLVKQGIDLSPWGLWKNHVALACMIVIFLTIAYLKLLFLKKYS
Experimental: (§1) In all cases, each determination was performed in triplicate.
(§2) 1.5 Preparation of Rat Sandwich-Cultured Hepatocytes

[3] = molecular target: MRP2 (Homo sapiens, UniProt Q92887); format: in vitro ADME; parameters: host or cells: MDCKII (Madin-Darby canine kidney II); conditions: for mean net efflux ratio: Caco-2
Experimental: as §1, §2

[4] = tested on: MDCKII-WT cells; format: in vitro ADME, canine; conditions: for mean net efflux ratio: MDCK
Experimental: as §1, §2

Chain of MRP2 (Q92887 whole entry): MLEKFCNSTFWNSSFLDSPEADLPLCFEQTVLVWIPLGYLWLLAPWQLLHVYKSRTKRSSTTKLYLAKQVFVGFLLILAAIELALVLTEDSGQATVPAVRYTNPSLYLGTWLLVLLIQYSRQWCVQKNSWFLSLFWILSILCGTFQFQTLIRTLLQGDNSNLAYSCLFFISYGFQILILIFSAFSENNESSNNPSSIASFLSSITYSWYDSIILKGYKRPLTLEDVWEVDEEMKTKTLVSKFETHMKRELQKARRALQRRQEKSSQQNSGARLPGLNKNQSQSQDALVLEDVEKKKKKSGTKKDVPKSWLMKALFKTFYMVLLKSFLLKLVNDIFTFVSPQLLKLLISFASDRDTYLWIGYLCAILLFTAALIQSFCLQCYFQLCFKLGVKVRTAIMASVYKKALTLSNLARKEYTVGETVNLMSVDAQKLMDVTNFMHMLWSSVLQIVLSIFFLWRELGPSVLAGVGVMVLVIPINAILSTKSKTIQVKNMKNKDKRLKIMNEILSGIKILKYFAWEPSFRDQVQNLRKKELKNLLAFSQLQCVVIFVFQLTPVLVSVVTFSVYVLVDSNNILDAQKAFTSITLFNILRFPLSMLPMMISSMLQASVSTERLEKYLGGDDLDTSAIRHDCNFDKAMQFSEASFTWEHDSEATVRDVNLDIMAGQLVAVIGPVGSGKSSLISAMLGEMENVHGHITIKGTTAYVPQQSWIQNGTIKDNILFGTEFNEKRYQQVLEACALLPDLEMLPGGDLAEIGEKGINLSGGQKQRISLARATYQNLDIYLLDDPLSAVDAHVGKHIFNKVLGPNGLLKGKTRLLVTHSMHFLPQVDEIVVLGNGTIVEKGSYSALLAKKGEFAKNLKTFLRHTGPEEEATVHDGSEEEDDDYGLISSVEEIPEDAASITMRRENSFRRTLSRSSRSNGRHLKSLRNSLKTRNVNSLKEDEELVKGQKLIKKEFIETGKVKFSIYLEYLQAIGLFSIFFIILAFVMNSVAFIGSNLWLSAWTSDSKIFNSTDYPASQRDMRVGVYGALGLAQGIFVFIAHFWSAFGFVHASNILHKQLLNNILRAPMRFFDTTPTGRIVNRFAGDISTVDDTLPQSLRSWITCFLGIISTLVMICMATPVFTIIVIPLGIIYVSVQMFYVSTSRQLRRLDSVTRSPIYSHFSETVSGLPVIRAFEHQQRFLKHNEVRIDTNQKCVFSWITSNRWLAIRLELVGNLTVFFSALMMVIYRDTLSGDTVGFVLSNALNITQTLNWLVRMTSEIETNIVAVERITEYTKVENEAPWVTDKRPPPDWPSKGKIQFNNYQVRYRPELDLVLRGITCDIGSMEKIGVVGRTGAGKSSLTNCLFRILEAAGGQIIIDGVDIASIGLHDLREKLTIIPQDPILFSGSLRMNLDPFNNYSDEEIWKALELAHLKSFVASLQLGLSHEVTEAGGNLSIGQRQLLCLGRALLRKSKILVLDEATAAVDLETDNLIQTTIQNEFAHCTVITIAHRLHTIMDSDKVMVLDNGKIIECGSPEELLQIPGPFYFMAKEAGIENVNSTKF

Row | Compound | net efflux ratio [2] | mean net efflux ratio [3] | mean net efflux ratio [4] | mean BEI (biliary excretion index), free silybin [1] | intrinsic biliary clearance ([1]; rat, hepatocytes) | other results
1 | O=c1cc(-c2ccccc2)oc2cc(O)c(O)c(O)c12 [baicalein] |  |  |  |  |  | reduction of biliary excretion of silybin ([1]; baicalein at 25 μM, silybin 10 μM): ~75%
2 | COc1cc([C@H]2Oc3cc([C@H]4Oc5cc(O)cc(O)c5C(=O)[C@@H]4O)ccc3O[C@@H]2CO)ccc1O [silybin A] | 2.96 | 3.06 | 1.01 | 35±4% | 2.1±0.2 μl/(min·mg protein) | 
3 | COc1cc([C@@H]2Oc3cc([C@H]4Oc5cc(O)cc(O)c5C(=O)[C@@H]4O)ccc3O[C@H]2CO)ccc1O [silybin B] | 3.04 | 3.30 | 0.99 | 33±1% | 2.5±0.4 μl/(min·mg protein) | 
4 | COc1cc(C2Oc3cc([C@H]4Oc5cc(O)cc(O)c5C(=O)[C@@H]4O)ccc3OC2CO)ccc1O (stereo partly drawn) [silybin] |  |  |  |  |  | BCRP substrate status ([2]; dog, 180 min, 10 µM): is a substrate for both MRP2 and BCRP efflux proteins; MRP2 substrate status ([3]; dog, 180 min, 10 µM): is a MRP2 substrate; permeability of silybin in absence or presence of P-gp, MRP and BCRP efflux inhibitors ([4]; Caco-2): no significant difference
5 | COc1ccc(-c2cc(=O)c3c(OC)c(OC)c(OC)c(OC)c3o2)cc1 [tangeretin] |  |  |  |  |  | effect on biliary clearance of silybin ([1]; rat, hepatocytes): inhibited the biliary clearance of silybin
